Measured values published in patent US20230167088A1, “1-PYRAZINYLPYRAZOLYL-3-OXYALKYL ACIDS AND THEIR DERIVATIVES, AND THEIR USE FOR CONTROL OF UNDESIRED PLANT GROWTH” (BAYER AKTIENGESELLSCHAFT, priority 2020, published 2023).

Tests used:
MATIN = assay: Herbicidal pre-emergence action 2b (doubly sown, 1280 g/ha); assay type: in vivo, Matricaria inodora; conditions: doubly sown pots, dosage 1280 g/ha, visual scoring after about 3 weeks
Summary of the method: (§1)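 Visual % scores against untreated plants (0% = like control, 100% = dead) were taken roughly 3 weeks after treatment in the greenhouse. Compounds, as WP or EC with 0.5% additive, were applied in 600 l/ha water onto covering soil over seeds of paired mono-/dicot weeds in sandy loam.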

AVEFA [1] = assay: Herbicidal post-emergence action 1a (greenhouse pots, visual rating); assay type: in vivo, Avena fatua; conditions: rated visually about 3 weeks after treatment, 100% = plants have died, 0% = like control plants
Summary of the method: (§2)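 Visual scoring versus untreated plants (100% = plants dead, 0% = as control) followed roughly 3 weeks in the greenhouse after treatment. Plants grown in sandy loam pots had been sprayed on green parts at the one-leaf stage, 2–3 weeks post-sowing, with aqueous WP/EC preparations containing 0.5% additive, 600 l/ha, at 320 and/or 80 g/ha.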

STEME = assay: Herbicidal pre-emergence action 2b (doubly sown, 1280 g/ha); assay type: in vivo, Stellaria media; conditions: doubly sown pots, dosage 1280 g/ha, visual scoring after about 3 weeks
Summary of the method: as §1

ALOMY [2] = assay: Herbicidal pre-emergence action 2a (greenhouse pots, visual scoring); assay type: in vivo, Alopecurus myosuroides; conditions: dosage 320 g/ha, visual scoring after about 3 weeks
Summary of the method: (§3)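 Pre-emergence soil-surface spray: WP/EC, 0.5% additive, 600 l/ha water, 320 and/or 80 g/ha. Greenhouse ~3 wk. Visual % damage vs untreated (100% = plants dead, 0% = like control).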

ALOMY [3] = assay: Herbicidal post-emergence action 1a (greenhouse pots, visual rating); assay type: in vivo, Alopecurus myosuroides; conditions: rated visually about 3 weeks after treatment, 100% = plants have died, 0% = like control plants
Summary of the method: as §2

POAAN = assay: Herbicidal post-emergence action 1b (twin sowing, 1280 g/ha); assay type: in vivo, Poa annua; conditions: dosage 1280 g/ha, visual rating about 3 weeks after treatment
Summary of the method: (§4)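 Compounds formulated as WP or EC were applied with 0.5% additive in 600 L/ha water onto one-leaf-stage weeds, each pot sown with one monocot and one dicot species in sandy loam. After roughly 3 weeks in the greenhouse, visual percent activity was scored against untreated plants.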

LOLRI = assay: Herbicidal pre-emergence action 2a (greenhouse pots, visual scoring); assay type: in vivo, Lolium rigidum; conditions: dosage 320 g/ha, visual scoring after about 3 weeks vs untreated controls
Summary of the method: as §3

AMARE [4] = assay: Herbicidal pre-emergence action 2b (doubly sown, 1280 g/ha); assay type: in vivo, Amaranthus retroflexus; conditions: doubly sown pots, dosage 1280 g/ha, visual scoring after about 3 weeks
Summary of the method: as §1

AVEFA [5] = assay: Herbicidal pre-emergence action 2a (greenhouse pots, visual scoring); assay type: in vivo, Avena fatua; conditions: dosage 320 g/ha, visual scoring after about 3 weeks
Summary of the method: as §3

VIOTR = assay: Herbicidal post-emergence action 1a (greenhouse pots, visual rating); assay type: in vivo, Viola tricolor; conditions: visual rating about 3 weeks after treatment
Summary of the method: as §2

AMARE [6] = assay: Herbicidal pre-emergence action 2a (greenhouse pots, visual scoring); assay type: in vivo, Amaranthus retroflexus; conditions: dosage 320 g/ha, visual scoring after about 3 weeks vs untreated controls
Summary of the method: as §3

POLCO = assay: as above; assay type: in vivo, Polygonum convolvulus; conditions: dosage 320 g/ha, visual scoring after about 3 weeks vs untreated controls
Summary of the method: as §3

ECHCG [7] = assay: Herbicidal pre-emergence action 2b (doubly sown, 1280 g/ha); assay type: in vivo, Echinochloa crus-galli; conditions: doubly sown pots, dosage 1280 g/ha, visual scoring after about 3 weeks
Summary of the method: as §1

ECHCG [8] = assay: Herbicidal post-emergence action 1b (twin sowing, 1280 g/ha); assay type: in vivo, Echinochloa crus-galli; conditions: dosage 1280 g/ha, visual rating about 3 weeks after treatment
Summary of the method: as §4

| Structure (SMILES) | Pre-emergence action at 1280 g/ha against MATIN in % (MATIN) | Post-emergence action against AVEFA in % (AVEFA [1]; Dosage 80 g/ha) | Post-emergence action against AVEFA in % (AVEFA [1]; Dosage 320 g/ha) | Pre-emergence action at 1280 g/ha against STEME in % (STEME) | Pre-emergence action against ALOMY in % (ALOMY [2]) | Post-emergence action against ALOMY in % (ALOMY [3]; Dosage 80 g/ha) | Post-emergence action against ALOMY in % (ALOMY [3]; Dosage 320 g/ha) | Post-emergence action at 1280 g/ha against POAAN in % (POAAN) | Pre-emergence action against LOLRI in % (LOLRI) | Pre-emergence action at 1280 g/ha against AMARE in % (AMARE [4]) | Pre-emergence action against AVEFA in % (AVEFA [5]) | Post-emergence action against VIOTR in % (VIOTR; dosage 80 g/ha) | Post-emergence action against VIOTR in % (VIOTR; dosage 320 g/ha) | Pre-emergence action against AMARE in % (AMARE [6]) | Pre-emergence action against POLCO in % (POLCO) | Pre-emergence action at 1280 g/ha against ECHCG in % (ECHCG [7]) | Post-emergence action at 1280 g/ha against ECHCG in % (ECHCG [8]) |
| --- | --- | --- | --- | --- | --- | --- | --- | --- | --- | --- | --- | --- | --- | --- | --- | --- | --- |
| COC(=O)C(C)Oc1nn(-c2cnccn2)c(-c2ccc(F)nc2)c1Br (racemic) [Example I-12] | 90% | 100% | 100% | 100% | 100% | 90% | 90% | 100% | 100% | 100% | 90% | 90% | 100% | 100% | 90% | 100% | 90% |
| COC(=O)C(C)Oc1nn(-c2cnccn2)c(-c2ccc(F)c(F)c2)c1Br (racemic) [Example I-16] | 100% | 90% | 100% | 100% | 90% | 90% | 100% | 100% | 100% | 100% | 90% | 80% | 90% | 100% | 90% | 100% | 100% |
| COC(=O)[C@@H](C)Oc1nn(-c2cnccn2)c(-c2ccnc(F)c2)c1Br [Example I-34] | 100% |  | 90% | 100% | 100% | 80% | 100% | 100% | 100% | 100% | 90% | 90% | 90% | 90% | 100% | 90% | 100% |
| COC(=O)[C@@H](C)Oc1nn(-c2cnccn2)c(-c2ccc(F)nc2)c1Cl [Example I-36] | 90% | 90% | 90% | 100% | 100% |  | 100% | 100% | 100% | 100% | 100% | 90% | 90% | 100% | 100% | 90% | 100% |
